Converted amounts (≈) assume the structure as drawn. The source made the active and inactive calls. No cut-off for these calls is given here.
The compounds below were run on Escherichia coli (assay: Antibacterial activity against carbapenem-resistant Escherichia coli BAA-2469 clinical isolates after 18 to 20 hrs in aerobic condition by CLSI-based broth microdilution assay). Conditions: not given.
Format: functional
C/C(=N\NC(=N)N)c1cnn(-c2ccc(C#CC3CCCCC3)cc2)c1C gave an MIC of 4 µg/mL (≈ 11 µM).

What follows are compounds tested on Acinetobacter baumannii (assay: Antibacterial activity against carbapenem-resistant Acinetobacter baumannii ATCC BAA 1605 clinical isolates after 18 to 20 hrs in aerobic condition by CLSI-based broth microdilution assay). Conditions: not given.
Format: functional
In the case of C/C(=N\NC(=N)N)c1cnn(-c2ccc(C#CC3CCCCC3)cc2)c1C, the MIC is reported as 4 µg/mL (≈ 11 µM).

The compounds below were run on Escherichia coli (assay: Inhibition of 6His tagged Escherichia coli UPPP expressed in Escherichia coli C41(DE3) cells preincubated for 15 mins followed by FPP substrate addition and measured after 20 mins by malachite green reagent based assay). Conditions: not given.
With C/C(=N\NC(=N)N)c1cnn(-c2ccc(C#CC3CCCCC3)cc2)c1C the inhibition was “inactive”.

These compounds were tested on Staphylococcus aureus (assay: Ratio of MBC to MIC for Methicillin-sensitive Staphylococcus aureus ATCC 6538 clinical isolates). Conditions: not given.
Format: functional
With C/C(=N\NC(=N)N)c1cnn(-c2ccc(C#CC3CCCCC3)cc2)c1C the Ratio was “<=2”.

These compounds were tested on Staphylococcus aureus (assay: Ratio of MBC to MIC for Methicillin-sensitive Staphylococcus aureus NRS107 clinical isolates). Conditions: not given.
Format: functional
For C/C(=N\NC(=N)N)c1cnn(-c2ccc(C#CC3CCCCC3)cc2)c1C, the Ratio was “<=2”.

These compounds were tested on Streptococcus pneumoniae (assay: Ratio of MBC to MIC for cephalosporin-resistant Streptococcus pneumoniae ATCC 51916 clinical isolates). Conditions: not given.
Format: functional
For C/C(=N\NC(=N)N)c1cnn(-c2ccc(C#CC3CCCCC3)cc2)c1C, the Ratio was under 3.

These compounds were tested on Acinetobacter baumannii (assay: Ratio of MBC to MIC for Acinetobacter baumannii ATCC 19606 clinical isolates). Conditions: not given.
Format: functional, ATCC 19606 = CIP 70.34 = JCM 6841
With C/C(=N\NC(=N)N)c1cnn(-c2ccc(C#CC3CCCCC3)cc2)c1C the Ratio was “>=1”.

Each compound was assayed on Acinetobacter baumannii (assay: Ratio of MBC to MIC for Acinetobacter baumannii ATCC BAA 1747 clinical isolates). Conditions: not given.
Format: functional
C/C(=N\NC(=N)N)c1cnn(-c2ccc(C#CC3CCCCC3)cc2)c1C was tested, and the Ratio was “>=1”.

Each compound was assayed on Acinetobacter baumannii (assay: Ratio of MBC to MIC for Acinetobacter baumannii NR 17785 clinical isolates). Conditions: not given.
Format: functional
For C/C(=N\NC(=N)N)c1cnn(-c2ccc(C#CC3CCCCC3)cc2)c1C, the Ratio was “>=1”.

Each compound was assayed on Acinetobacter baumannii (assay: Ratio of MBC to MIC for Acinetobacter baumannii NR 17786 clinical isolates). Conditions: not given.
Format: functional
For C/C(=N\NC(=N)N)c1cnn(-c2ccc(C#CC3CCCCC3)cc2)c1C, the Ratio was “>=1”.

What follows are compounds tested on Escherichia coli (assay: Ratio of MBC to MIC for Escherichia coli ATCC 25922 clinical isolates). Conditions: not given.
Format: functional
C/C(=N\NC(=N)N)c1cnn(-c2ccc(C#CC3CCCCC3)cc2)c1C was tested, and the Ratio was “>=1”.

The compounds below were run on Escherichia coli (assay: Ratio of MBC to MIC for Escherichia coli ATCC 35150 clinical isolates). Conditions: not given.
Format: functional
C/C(=N\NC(=N)N)c1cnn(-c2ccc(C#CC3CCCCC3)cc2)c1C was tested, and the Ratio was “>=1”.

Each compound was assayed on Enterobacter cloacae subsp. cloacae (assay: Ratio of MBC to MIC for Enterobacter cloacae subsp. cloacae ATCC BAA-1143 clinical isolates). Conditions: not given.
Format: functional
C/C(=N\NC(=N)N)c1cnn(-c2ccc(C#CC3CCCCC3)cc2)c1C gave a Ratio of over 1.

These compounds were tested on Klebsiella pneumoniae (assay: Ratio of MBC to MIC for Klebsiella pneumoniae BAA-1706 after 18 to 20 hrs in aerobic condition by CLSI-based broth microdilution assay). Conditions: not given.
Format: functional
C/C(=N\NC(=N)N)c1cnn(-c2ccc(C#CC3CCCCC3)cc2)c1C was tested, and the Ratio was “>=1”.

What follows are compounds tested on Klebsiella pneumoniae (assay: Ratio of MBC to MIC for Klebsiella pneumoniae BAA-1144 clinical isolates). Conditions: not given.
Format: functional
C/C(=N\NC(=N)N)c1cnn(-c2ccc(C#CC3CCCCC3)cc2)c1C was tested, and the Ratio was “>=1”.

Each compound was assayed on Salmonella enterica (assay: Ratio of MBC to MIC for Salmonella enterica NR-170 clinical isolates). Conditions: not given.
Format: functional
C/C(=N\NC(=N)N)c1cnn(-c2ccc(C#CC3CCCCC3)cc2)c1C was tested, and the Ratio was “>=1”.

The compounds below were run on Salmonella enteritidis (assay: Ratio of MBC to MIC for Salmonella enteritidis ATCC 13076 clinical isolates). Conditions: not given.
Format: functional, Salmonella enterica subsp. enterica serovar Enteritidis
In the case of C/C(=N\NC(=N)N)c1cnn(-c2ccc(C#CC3CCCCC3)cc2)c1C, the Ratio is reported as “>=1”.

The compounds below were run on Salmonella typhimurium (assay: Ratio of MBC to MIC for Salmonella typhimurium ATCC 700720 clinical isolates). Conditions: not given.
Format: functional, Salmonella enterica subsp. enterica serovar Typhimurium
With C/C(=N\NC(=N)N)c1cnn(-c2ccc(C#CC3CCCCC3)cc2)c1C the Ratio was “>=1”.

These compounds were tested on Shigella flexneri (assay: Ratio of MBC to MIC for Shigella flexneri ATCC 9199 clinical isolates). Conditions: not given.
Format: functional
For C/C(=N\NC(=N)N)c1cnn(-c2ccc(C#CC3CCCCC3)cc2)c1C, the Ratio was “>=1”.

What follows are compounds tested on Pseudomonas aeruginosa (assay: Ratio of MBC to MIC for Pseudomonas aeruginosa ATCC 25619 clinical isolates). Conditions: not given.
Format: functional
With C/C(=N\NC(=N)N)c1cnn(-c2ccc(C#CC3CCCCC3)cc2)c1C the Ratio was “>=1”.

These compounds were tested on Pseudomonas aeruginosa (assay: Ratio of MBC to MIC for Pseudomonas aeruginosa ATCC 15442 clinical isolates). Conditions: not given.
Format: functional
In the case of C/C(=N\NC(=N)N)c1cnn(-c2ccc(C#CC3CCCCC3)cc2)c1C, the Ratio is reported as “>=1”.

Each compound was assayed on Pseudomonas aeruginosa (assay: microbe, parasite or virus in culture). Conditions: ATCC 9027.
Description: Antibacterial activity against Pseudomonas aeruginosa ATCC 9027 clinical isolates after 18 to 20 hrs in aerobic condition by CLSI-based broth microdilution assay
C/C(=N\NC(=N)N)c1cnn(-c2ccc(C#CC3CCCCC3)cc2)c1C gave an MIC of 16 µg/mL (≈ 44.1 µM).

Source: ChEMBL document CHEMBL4334464, “From Phenylthiazoles to Phenylpyrazoles: Broadening the Antibacterial Spectrum toward Carbapenem-Resistant Bacteria” (J Med Chem, 2019)
